Article PMC4554882 (Bioorganic & medicinal chemistry, 2015)
In brackets after ≈: the same amount, converted by molar mass. Where two headings read alike, the source gives them in different places.

Experiments:
[1] = system: tubulin; assay: Inhibition of [3H]colchicine binding to tubulin; conditions: tubulin 1 μM, [3H]colchicine 5 μM, 10 min at 37 °C
[2] = system: tubulin; conditions: tubulin 1 μM, [3H]colchicine 5 μM, ref [14], cited from earlier work
[3] = system: DU145 (prostate cancer); conditions: read-out: GI50 (μM ± SD) DU145, ref [14]; cited from earlier work
[4] = Aqueous solubility; type: physicochemical; conditions: pH 7.4, Solubility (μg/mL), mean ± SD of three experiments
[5] = system: human tumor cell lines (A549, KB, KBvin, DU145); assay: SRB cytotoxicity, HTCL panel as a whole; type: cell-based; conditions: read-out: GI50 values across the HTCL panel, range over A549, KB
[6] = system: tubulin; assay: Tubulin assembly inhibition; type: biochemical

In the case of `COc1ccc(/C=C\c2cc(OC)c(OC)c(OC)c2)cc1O` [CA-4, combretastatin A-4], the “Inhibition of colchicine binding % Inhibition ± SD 1 μM” value ([1]; inhibitor 1 μM) is reported as 84 ± 0.3% and the “Inhibition of colchicine binding % Inhibition ± SD 5 μM” value ([1]; inhibitor 5 μM) is reported as 97 ± 0.4%.

In the case of `COc1ccc2c(c1)CCCN2c1nc(Cl)nc2ccccc12` [Compound 1a], the “Inhibition of colchicine binding % Inhibition ± SD 1 μM” value ([2]; inhibitor 1 μM) is given as 95 ± 0.7%, the “Inhibition of colchicine binding % Inhibition ± SD 5 μM” value ([2]; inhibitor 5 μM) is given as 99 ± 0.6% and the GI50 [3] is given as 0.0015 ± 0.0003 µM.

`COc1ccc2c(c1)CCCN2c1nc(NCCCO)nc2ccccc12` [Compound 4a, N^1-(2′-(3-Hydroxypropyl)aminoquinazol-4′-yl)-6-methoxy-1,2,3,4-tetrahydro-quinoline] gave a solubility at 4 h [4] of 75 µg/mL (≈ 206 µM) and a GI50 [5] of 16 to 20 nM.

`COc1ccc2c(c1)CCCN2c1nc(NC2CCCC2)nc2ccccc12` [Compound 4c] gave a GI50 [5] of 140 to 1420 nM.

For `COc1ccc2c(c1)CCCN2c1cccc2cccnc12` [Compound 8d, 6-Methoxy-3,4-dihydro-2H-1,8′-biquinoline], the “inhibitory activity in the assembly assay” value [6] was “did not display significant inhibitory activity”.
